Reference: US11351142B2, “Composition and method for treating neuronal ceroid lipofuscinosis” (Rush University Medical Center, priority 2012, dated 2022)

Legend:
lysosomal genes = test: RT-PCR for lysosomal genes in human astrocytes; assay type: cell-based; details: 25 μM gemfibrozil, serum free
Description: (FIG. 13A) Quantitative real-time PCR for lysosomal genes in mouse astrocytes treated with 25 μM gemfibrozil for different time points under serum free conditions. […] (FIG. 13B) RT-PCR for lysosomal genes in human astrocytes treated under same condition. […] Results represent 3 independent experiments.

PPARα/RXRα heterodimer = molecular target: T1, PPARα/RXRα heterodimer (Mus musculus, UniProt P23204+P28700); test: Co-immunoprecipitation of PPARα and RXRα from nuclear extract of mouse astrocytes; assay type: cell-based; details: gemfibrozil (10 μM) and RA (0.5 μM) alone and in combination, 6 hrs
T1 construct: endogenous in cells; host or cells: mouse primary astrocytes (nuclear extract)
T1 sequence (P23204 1-468): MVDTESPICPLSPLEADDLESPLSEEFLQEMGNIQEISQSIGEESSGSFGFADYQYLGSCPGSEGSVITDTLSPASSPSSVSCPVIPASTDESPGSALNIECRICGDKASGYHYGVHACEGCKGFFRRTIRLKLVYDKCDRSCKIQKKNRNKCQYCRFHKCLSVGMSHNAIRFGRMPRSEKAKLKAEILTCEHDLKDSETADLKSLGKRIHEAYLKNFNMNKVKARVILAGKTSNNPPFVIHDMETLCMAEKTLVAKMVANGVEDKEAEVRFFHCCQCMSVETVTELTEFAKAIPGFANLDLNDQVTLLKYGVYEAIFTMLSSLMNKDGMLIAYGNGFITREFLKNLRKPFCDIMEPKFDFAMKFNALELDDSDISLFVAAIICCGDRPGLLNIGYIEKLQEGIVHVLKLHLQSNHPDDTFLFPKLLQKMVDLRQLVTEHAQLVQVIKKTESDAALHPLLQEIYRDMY
T1 sequence (P28700 1-467): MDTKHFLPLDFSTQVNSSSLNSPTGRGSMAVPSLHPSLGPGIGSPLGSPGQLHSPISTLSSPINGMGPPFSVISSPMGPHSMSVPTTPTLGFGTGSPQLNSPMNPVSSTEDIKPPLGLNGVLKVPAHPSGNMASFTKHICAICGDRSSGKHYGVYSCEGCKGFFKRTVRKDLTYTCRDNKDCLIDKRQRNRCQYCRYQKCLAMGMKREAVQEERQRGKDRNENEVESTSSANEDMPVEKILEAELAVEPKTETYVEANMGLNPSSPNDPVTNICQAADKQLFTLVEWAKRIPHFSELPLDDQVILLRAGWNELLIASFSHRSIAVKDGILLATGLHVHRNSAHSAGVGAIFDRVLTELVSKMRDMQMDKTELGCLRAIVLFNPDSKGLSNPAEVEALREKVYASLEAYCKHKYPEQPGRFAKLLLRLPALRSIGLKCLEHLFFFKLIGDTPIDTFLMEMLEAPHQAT
Description: After treatment, cells were washed with PBS, scraped into 1.5 mL tubes and centrifuged in 4° C. for 5 min at 500 rpm. The supernatant was aspirated and the pellet was resuspended in a membrane lysis buffer comprised of (4-(2-hydroxyethyl)-1-piperazineethanesulfonic acid) (HEPES, pH 8.0), MgCl2, KCl, dithiothreitol (DTT) and protease/phosphatase inhibitors, vortexed and centrifuged in 4° C. at 15,000 rpm for 3 minutes. Again, the supernatant was aspirated and the pellet was resuspended in a high salt, nuclear envelope lysis buffer comprised of HEPES (pH 8.0), MgCl2, glycerol, NaCl, ethylenediaminetetraacetic acid (EDTA), DTT and protease/phosphatase inhibitors, rotated vigorously in 4° C. for 30 min and centrifuged in 4° C. at 15,000 rpm for 15 minutes. The resultant nuclear pellet was resuspended in IP buffer and a fraction was kept separately as lysate. The remaining nuclear extract was then precleared with 25 ul of protein A-agarose (50%, v/v). The supernatants were immunoprecipitated with 5 ug of anti-RXRα or anti-PPARα or normal IgG (Santa Cruz Biotechnology, Inc.) overnight at 4 C, followed by incubation with protein A-agarose for 4 hrs at 4° C. Protein A-agarose-antigen-antibody complexes were collected by centrifugation at 12,000 rpm for 60 s at 4° C. […]

TPP1 = test: Immunofluorescence for TPP1 in SH-SY5Y cells; assay type: cell-based, human; details: 25 μM gemfibrozil and 10 μM fenofibrate, 24 hrs
Description: Immunocytochemistry was performed as described earlier (25). Briefly, 8 well chamber slides containing mouse primary astrocytes, mouse neurons, human primary astrocytes or SH-SY5Y cells were cultured to 70-80% confluence were fixed with chilled Methanol (Fisher Scientific, Waltham, Mass.) overnight, followed by two brief rinses with filtered PBS. Samples were blocked with 2% BSA (Fisher Scientific) in PBS containing Tween 20 (Sigma) and Triton X-100 (Sigma) for 30 min and incubated at room temperature under shaking conditions for 2 hr in PBS containing the following anti-mouse primary antibodies: […] Santa Cruz Biotech, Santa Cruz, Calif.), GFAP, (1:100; Santa Cruz), and 3-tubulin (1:5000; Millipore). After four 15 min washes in filtered PBS, the slides were further incubated with Cy2 or Cy5-labeled secondary antibodies (all 1:200; Jackson ImmunoResearch, West Grove, Pa.) for 1 hr under similar shaking conditions. Following four 15 minute washes with filtered PBS, cells were incubated for 4-5 min with 4′, 6-diamidino-2-phenylindole (DAPI, 1:10,000; Sigma). The samples were run in an EtOH and Xylene (Fisher) gradient, mounted and observed under Olympus BX41 fluorescence microscope.

CLN2 (−/−) mice = test: Motor activity monitoring of CLN2 (−/−) mice; assay type: in vivo, mouse; details: after 2 weeks and 6 weeks of gemfibrozil treatment
Description: Each animal was allowed 5 mins of adaptation time followed by monitoring for 5 min. *p-value<0.05. n=15 (untreated), n=20 (treated)

Cln3 mRNA = Cln3 mRNA expression by semi-quantitative RT-PCR in mouse primary astrocytes; assay type: cell-based; details: 25 μM gemfibrozil, 2, 6, 12, and 24 hrs
Description: Astroglia were isolated from mixed glial cultures as described (17,18) according to the procedure of Giulian and Baker (19). Briefly, on day 9, the mixed glial cultures were washed three times with Dulbecco's modified Eagle's medium/F-12 and subjected to shaking at 240 rpm for 2 h at 37° C. on a rotary shaker to remove microglia. After 2 days, the shaking was repeated for 24 h for the removal of oligodendroglia and to ensure the complete removal of all nonastroglial cells. The attached cells were seeded onto new plates for further studies. Total RNA was isolated from mouse primary astrocytes and human primary astrocytes using RNA-Easy Qiagen (Valencia, Calif.) kit following manufactures protocol. Semi-quantitative RT-PCR was carried out as described earlier (24) using oligo (dT) 12-18 as primer and moloney murine leukemia virus reverse transcriptase (MMLV-RT, Invitrogen) in a 20 μl reaction mixture. The resulting cDNA was appropriately amplified using Promega Master Mix (Madison, Wis.) and the following primers (Invitrogen) for murine genes: […]

Structure (SMILES): Cc1ccc(C)c(OCCCC(C)(C)C(=O)O)c1 [gemfibrozil]
- lysosomal genes mRNA (RT-PCR) (lysosomal genes): upregulation
- PPARα in immunoblot after immunoprecipitation with RXR Ab (PPARα/RXRα heterodimer): increased abundance of PPARα
- RXR in immunoblot after immunoprecipitation with PPARα Ab, treated vs control (PPARα/RXRα heterodimer): increased presence of RXR
- level of TPP1 protein (immunofluorescence) (TPP1): considerable increase
- motor activity parameters (CLN2 (−/−) mice): delays the loss of motor activity
- Cln3 mRNA expression (Cln3 mRNA): increase within 12 to 24 h
